According to ChEMBL document CHEMBL1201862, “PubChem BioAssay data set” (2004):
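Where inhibition never reached the appropriate level, the endpoint shown equals the highest concentration tested. Otherwise, values were interpolated linearly from a five-concentration, 48-hour dose response in 96-well plates. GI50: concentration for 50% inhibition of growth.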 Activity calls are given as the source filed them. Cut-off read from the data, not from the text of the source: active = GI50 up to about 1.1 µM and inactive = higher.

Assays:
Assay in all cases: NCI anticancer screen, dose series, 48 h
ACHN = system: ACHN
HL-60 = system: HL-60
Malme-3M = system: Malme-3M
SNB-19 = system: SNB-19
K562 = system: K562
OVCAR-8 = system: OVCAR-8
NCI-H460 = system: NCI-H460
Hs-578T = system: Hs-578T
NCI-H23 = system: NCI-H23
KM12 = system: KM12
UACC-62 = system: UACC-62
SW-620 = system: SW-620
IGROV-1 = system: IGROV-1
MDA-MB-231 = system: MDA-MB-231
SK-MEL-28 = system: SK-MEL-28
T47D = system: T47D
A498 = system: A498
LOX IMVI = system: LOX IMVI
MDA-MB-435 = system: MDA-MB-435
HCC 2998 = system: HCC 2998

SMILES | GI50 (ACHN) | GI50 (HL-60) | GI50 (Malme-3M) | GI50 (SNB-19) | GI50 (K562) | GI50 (OVCAR-8) | GI50 (NCI-H460) | GI50 (Hs-578T) | GI50 (NCI-H23) | GI50 (KM12) | GI50 (UACC-62) | GI50 (SW-620) | GI50 (IGROV-1) | GI50 (MDA-MB-231) | GI50 (SK-MEL-28) | GI50 (T47D) | GI50 (A498) | GI50 (LOX IMVI) | GI50 (MDA-MB-435) | GI50 (HCC 2998)
Nc1nc(O)c2[nH]cnc2[n+]1[O-] | > 100 µM (inactive) | > 100 µM (inactive) | > 100 µM (inactive) | > 100 µM (inactive) | > 100 µM (inactive) | > 100 µM (inactive) | > 100 µM (inactive) | > 100 µM (inactive) | > 100 µM (inactive) | > 100 µM (inactive) | > 100 µM (inactive) | > 100 µM (inactive) | > 100 µM (inactive) | > 100 µM (inactive) | > 100 µM (inactive) | > 100 µM (inactive) | > 100 µM (inactive) | > 100 µM (inactive) |  | 
CCOC(=O)C(C)c1nc2c(Cl)c3ncccc3cc2[nH]c1=O (stereo not drawn) | 22.6 µM (inactive) |  | > 100 µM (inactive) | > 100 µM (inactive) | 34 µM (inactive) | 36.5 µM (inactive) |  | 23.2 µM (inactive) | 77.1 µM (inactive) | 43.8 µM (inactive) | 43.5 µM (inactive) | 75.2 µM (inactive) | 62.2 µM (inactive) | 79.1 µM (inactive) | > 100 µM (inactive) | 64.3 µM (inactive) | > 100 µM (inactive) | > 100 µM (inactive) | 84.5 µM (inactive) | 
O=C(C(Cl)Cl)N(O)c1ccccc1OCc1ccccc1 | 32.8 µM (inactive) | 27.6 µM (inactive) | 81.8 µM (inactive) | 57.7 µM (inactive) | 37.6 µM (inactive) | 8.95 µM (inactive) | > 100 µM (inactive) | 19.5 µM (inactive) | > 100 µM (inactive) | 28.2 µM (inactive) | 24.3 µM (inactive) | 24.8 µM (inactive) | 68.2 µM (inactive) | 44.8 µM (inactive) | 37.4 µM (inactive) | 19.1 µM (inactive) |  | 43.9 µM (inactive) | 43.2 µM (inactive) | 1.9 µM (inactive)
O=c1cccc(Cl)[nH]1 | > 100 µM (inactive) |  | > 100 µM (inactive) | > 100 µM (inactive) | > 100 µM (inactive) | > 100 µM (inactive) | > 100 µM (inactive) | > 100 µM (inactive) | > 100 µM (inactive) | > 100 µM (inactive) | > 100 µM (inactive) | > 100 µM (inactive) | > 100 µM (inactive) | > 100 µM (inactive) | > 100 µM (inactive) | > 100 µM (inactive) |  | > 100 µM (inactive) | > 100 µM (inactive) | 
CC#CCCCC1(C)CCCNC1=S (stereo not drawn) | > 10 µM (inactive) | > 10 µM (inactive) | > 10 µM (inactive) | > 10 µM (inactive) | > 10 µM (inactive) | > 10 µM (inactive) | > 10 µM (inactive) | > 10 µM (inactive) | > 10 µM (inactive) | > 10 µM (inactive) | > 10 µM (inactive) | > 10 µM (inactive) | > 10 µM (inactive) | > 10 µM (inactive) |  | > 10 µM (inactive) |  | > 10 µM (inactive) | > 10 µM (inactive) | 
CNC(Cc1ccccc1)c1cccc(OC)c1O (stereo not drawn) | > 100 µM (inactive) |  | > 100 µM (inactive) | > 100 µM (inactive) | 98.2 µM (inactive) | > 100 µM (inactive) | > 100 µM (inactive) | > 100 µM (inactive) | > 100 µM (inactive) | > 100 µM (inactive) | > 100 µM (inactive) | > 100 µM (inactive) | > 100 µM (inactive) | > 100 µM (inactive) | > 100 µM (inactive) | 5 µM (inactive) | > 100 µM (inactive) | > 100 µM (inactive) | > 100 µM (inactive) | 
O=C(O/N=c1/ccc(=O)/c(=N\OC(=O)c2ccccc2)c1=O)c1ccccc1 | > 100 µM (inactive) | 0.857 µM (active) |  | 76.2 µM (inactive) | 39.4 µM (inactive) | > 100 µM (inactive) | > 100 µM (inactive) | > 100 µM (inactive) | > 100 µM (inactive) | > 100 µM (inactive) |  | > 100 µM (inactive) | 89.3 µM (inactive) |  | > 100 µM (inactive) | > 100 µM (inactive) | > 100 µM (inactive) | > 100 µM (inactive) | 53.6 µM (inactive) | > 100 µM (inactive)
CCOC(=O)C(=C(SC)SC)c1nn2c(=O)cc(C)nc2s1 | 18.4 µM (inactive) | 17.4 µM (inactive) | 15.9 µM (inactive) | 27.2 µM (inactive) | 19.2 µM (inactive) | 23.8 µM (inactive) | 24 µM (inactive) | 43.9 µM (inactive) | 32.9 µM (inactive) | 33 µM (inactive) | 21 µM (inactive) | 21 µM (inactive) | 20.9 µM (inactive) | 27.9 µM (inactive) | 17.1 µM (inactive) | 17 µM (inactive) |  | 15.7 µM (inactive) | 16.6 µM (inactive) | 18.8 µM (inactive)
COc1cc2c(cc1OC)C1(COc3cc(O)c(O)c(O)c3C1=O)C2 (stereo not drawn) | > 50 µM (inactive) | > 50 µM (inactive) | > 50 µM (inactive) | > 50 µM (inactive) | > 50 µM (inactive) | > 50 µM (inactive) | > 50 µM (inactive) | 16.4 µM (inactive) | 45.4 µM (inactive) | > 50 µM (inactive) | > 50 µM (inactive) | > 50 µM (inactive) | > 50 µM (inactive) | > 50 µM (inactive) | > 50 µM (inactive) | 5.11 µM (inactive) | > 50 µM (inactive) | > 50 µM (inactive) | > 50 µM (inactive) | 
CC1(C)C2CCC(O)(C2)C1N (stereo not drawn) | > 100 µM (inactive) |  | > 100 µM (inactive) | > 100 µM (inactive) | > 100 µM (inactive) | > 100 µM (inactive) | > 100 µM (inactive) | > 100 µM (inactive) | > 100 µM (inactive) | > 100 µM (inactive) | > 100 µM (inactive) | > 100 µM (inactive) | > 100 µM (inactive) | > 100 µM (inactive) | > 100 µM (inactive) | > 100 µM (inactive) |  | > 100 µM (inactive) | > 100 µM (inactive) | > 100 µM (inactive)
Clc1ccc(Oc2ccc(/N=C/c3ccc(Cl)cc3Cl)cc2Cl)cc1 | > 100 µM (inactive) | 9.2 µM (inactive) | 27.3 µM (inactive) | 41.6 µM (inactive) |  | 41.2 µM (inactive) | 63.7 µM (inactive) | 25.9 µM (inactive) | 40.8 µM (inactive) | 29.5 µM (inactive) | 37.7 µM (inactive) | 33 µM (inactive) | 44.8 µM (inactive) | 51.3 µM (inactive) | 34.2 µM (inactive) | 43.6 µM (inactive) |  | 28.3 µM (inactive) | 18.5 µM (inactive) | > 100 µM (inactive)
Clc1cc2nnn(C3CCCCO3)c2cc1Cl (stereo not drawn) | > 100 µM (inactive) |  | > 100 µM (inactive) | > 100 µM (inactive) | > 100 µM (inactive) | > 100 µM (inactive) | 88.9 µM (inactive) | 35.4 µM (inactive) | > 100 µM (inactive) | 86.3 µM (inactive) | 37.2 µM (inactive) |  | > 100 µM (inactive) | 24.5 µM (inactive) |  | 30.4 µM (inactive) | 36.1 µM (inactive) |  | > 100 µM (inactive) | > 100 µM (inactive)
